Reference: patent US20130210809A1, “NOVEL 2-AMINO-4-PYRAZOLYL-THIAZOLE DERIVATIVES AND THEIR USE AS ALLOSTERIC MODULATORS OF METABOTROPIC GLUTAMATE RECEPTORS” (priority 2010, published 2013)

biological target: T1, recombinant human mGluR4a receptors (Homo sapiens, UniProt Q14833); assay: mGluR4 assay on HEK-expressing human mGluR4 (fluorescent cell based Ca2+ mobilization assay, FLIPR); settings: HEK-293 cells expressing hmGluR4; enhancement of EC25 glutamate response; mean of at least three independent experiments in duplicate; read-out: Ca^2+ Flux (mean EC50)
T1 construct: expressed in transfected cells
T1 sequence (Q14833 33-912): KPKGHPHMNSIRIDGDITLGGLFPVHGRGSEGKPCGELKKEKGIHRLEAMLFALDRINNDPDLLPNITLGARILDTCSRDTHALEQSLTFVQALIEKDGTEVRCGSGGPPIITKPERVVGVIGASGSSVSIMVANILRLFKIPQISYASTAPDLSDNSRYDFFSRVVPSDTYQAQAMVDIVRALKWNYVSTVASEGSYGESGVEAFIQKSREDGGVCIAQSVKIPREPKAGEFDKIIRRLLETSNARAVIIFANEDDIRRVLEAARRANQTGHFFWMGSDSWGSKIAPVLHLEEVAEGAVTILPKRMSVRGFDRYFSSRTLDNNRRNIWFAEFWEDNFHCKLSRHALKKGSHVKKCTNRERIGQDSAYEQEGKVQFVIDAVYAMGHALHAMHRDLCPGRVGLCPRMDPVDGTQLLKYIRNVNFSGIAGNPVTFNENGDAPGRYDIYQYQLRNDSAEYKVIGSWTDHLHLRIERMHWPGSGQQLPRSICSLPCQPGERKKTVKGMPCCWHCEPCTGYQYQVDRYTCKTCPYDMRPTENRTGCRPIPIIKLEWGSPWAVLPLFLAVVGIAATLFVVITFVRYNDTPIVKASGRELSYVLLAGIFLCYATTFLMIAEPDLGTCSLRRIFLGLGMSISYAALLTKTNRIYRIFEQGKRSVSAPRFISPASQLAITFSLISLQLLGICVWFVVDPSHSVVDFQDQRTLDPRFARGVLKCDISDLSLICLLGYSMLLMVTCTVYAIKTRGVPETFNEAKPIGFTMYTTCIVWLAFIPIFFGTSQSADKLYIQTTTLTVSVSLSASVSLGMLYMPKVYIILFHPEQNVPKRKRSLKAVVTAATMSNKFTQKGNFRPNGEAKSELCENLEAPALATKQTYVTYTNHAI
Excerpt: mGluR4 Assay on HEK-Expressing Human mGluR4
The compounds of the present invention are positive allosteric modulators of mGluR4 receptor. Their activity was examined on recombinant human mGluR4a receptors by detecting changes in intracellular Ca^2+ concentration, using the fluorescent Ca^2+-sensitive dye Fluo4-(AM) and a Fluorometric Imaging Plate Reader (FLIPR, Molecular Devices, Sunnyvale, Calif.).
The cDNA encoding the human metabotropic glutamate receptor (hmGluR4), (accession number NM_000841.1, NCBI Nucleotide database browser), was subcloned into an expression vector containing also the Hygromycin resistance gene. In parallel, the cDNA encoding a G protein allowing redirection of the activation signal to intracellular calcium flux was subcloned into a different expression vector containing also the Puromycin resistance gene. Transfection of both these vectors into HEK293 cells with PolyFect reagent (Qiagen) according to supplier's protocol, and hygromycin and puromycin treatment allowed selection of antibiotic resistant cells which had integrated stably one or more copies of the plasmids. Positive cellular clones expressing hmGluR4 were identified in a functional assay measuring changes in calcium flux in response to glutamate or selective known mGluR4 orthosteric agonists and antagonists. HEK-293 cells expressing hmGluR4 were maintained in media containing DMEM, dialyzed Fetal Calf Serum (10%), Glutamax™ (2 mM), Penicillin (100 units/mL), Streptomycin (100 μg/mL), Geneticin (100 μg/mL) and Hygromycin-B (40 μg/mL) and Puromycin (1 μg/mL) at 37° C./5% CO2.
Human mGluR4 HEK-293 cells were plated out 24 hours prior to FLIPR^384 assay in black-walled, clear-bottomed, poly-L-ornithine-coated 384-well plates at a density of 25,000 cells/well in a glutamine/glutamate free DMEM medium containing foetal bovine serum (10%), penicillin (100 units/mL) and streptomycin (100 μg/mL) at 37° C./5% CO2.
On the day of the assay, the medium was aspirated and the cells were loaded with a 3 μM solution of Fluo4-AM (LuBioScience, Lucerne, Switzerland) in 0.03% pluronic acid. After 1 hour at 37° C./5% CO2, the non incorporated dye was removed by washing cell plate with the assay buffer and the cells were left in the dark at it for six hours before testing. All assays were performed in a pH 7.4 buffered-solution containing 20 mM HEPES, 143 mM NaCl, 6 mM KCl, 1 mM MgSO4, 1 mM CaCl2, 0.125 mM sulfapyrazone and 0.1% glucose.
After 10 s of basal fluorescence recording, various concentrations of the compounds of the invention were added to the cells. Changes in fluorescence levels were first monitored for 180 s in order to detect any agonist activity of the compounds. Then the cells were stimulated by an EC25 glutamate concentration for an additional 110 s in order to measure enhancing activities of the compounds of the invention. EC25 glutamate concentration is the concentration giving 25% of the maximal glutamate response.
The concentration-response curves of representative compounds of the present invention were generated using the Prism GraphPad software (Graph Pad Inc, San Diego, USA). The curves were fitted to a four-parameter logistic equation:
(Y=Bottom+(Top−Bottom)/(1+10̂((Log EC50-X)*Hill Slope)
allowing the determination of EC50 values.
The Table 3 below represents the mean EC50 obtained from at least three independent experiments of selected molecules performed in duplicate.

Row | SMILES | EC50 [µM]
1 | Cc1ccnc(Nc2nc(-c3c[nH]nc3-c3cccc(CCCO)c3)cs2)n1 [Compound 1-15, 3-(3-(4-(2-(4-Methylpyrimidin-2-ylamino)thiazol-4-yl)-1H-pyrazol-3-yl)phenyl)propan-1-ol] | 0.1 to 1
2 | Cc1ccnc(Nc2nc(-c3cn[nH]c3-c3cccc(C#N)c3F)cs2)n1 [Compound 1-35, 2-Fluoro-3-(4-(2-(4-methylpyrimidin-2-ylamino)thiazol-4-yl)-1H-pyrazol-5-yl)benzonitrile] | < 0.1
3 | Cc1ccnc(Nc2nc(-c3c[nH]nc3-c3ccc(C(O)C(F)(F)F)cc3)cs2)n1 (centres unmarked) [Compound 1-6, 2,2,2-Trifluoro-1-(4-(4-(2-(4-methylpyrimidin-2-ylamino)thiazol-4-yl)-1H-pyrazol-3-yl)phenyl)ethanol] | 1 to 10
4 | CC(=O)N1CC=C(c2n[nH]cc2-c2csc(Nc3nccc(C)n3)n2)CC1 [Compound 1-40, 1-(4-(4-(2-(4-Methylpyrimidin-2-ylamino)thiazol-4-yl)-1H-pyrazol-3-yl)-5,6-dihydropyridin-1(2H)-yl)ethanone] | 1 to 10
5 | Cc1ccnc(Nc2nc(-c3c[nH]nc3-c3ccc(Cl)cc3)cs2)n1 [Compound 1-16, 4-(3-(4-Chlorophenyl)-1H-pyrazol-4-yl)-N-(4-methylpyrimidin-2-yl)thiazol-2-amine] | 0.1 to 1
6 | Cc1ccnc(Nc2nc(-c3c[nH]nc3-c3cncc(C(C)(C)O)c3)cs2)n1 [Compound 1-14, 2-(5-(4-(2-(4-Methylpyrimidin-2-ylamino)thiazol-4-yl)-1H-pyrazol-3-yl)pyridin-3-yl)propan-2-ol] | 1 to 10
7 | Cc1ccnc(Nc2nc(-c3c[nH]nc3-c3ccccc3Cl)cs2)n1 [Compound 1-21, 4-(3-(2-Chlorophenyl)-1H-pyrazol-4-yl)-N-(4-methylpyrimidin-2-yl)thiazol-2-amine] | 0.1 to 1
8 | Cc1ccnc(Nc2nc(-c3c[nH]nc3-c3cccc(CN4CCOCC4)c3)cs2)n1 [Compound 1-9, N-(4-Methylpyrimidin-2-yl)-4-(3-(3-(morpholinomethyl)phenyl)-1H-pyrazol-4-yl)thiazol-2-amine] | 1 to 10
9 | Cc1ccnc(Nc2nc(-c3c[nH]nc3-c3ccccc3F)cs2)n1 [Compound 1-3, 4-(3-(2-Fluorophenyl)-1H-pyrazol-4-yl)-N-(4-methylpyrimidin-2-yl)thiazol-2-amine] | < 0.1
10 | Cc1ccnc(Nc2nc(-c3c[nH]nc3C(F)F)cs2)n1 [Compound 1-1, 4-(3-(Difluoromethyl)-1H-pyrazol-4-yl)-N-(4-methylpyrimidin-2-yl)thiazol-2-amine] | < 0.1
11 | Cc1ccnc(Nc2nc(-c3cn[nH]c3-c3cc(C#N)ccc3F)cs2)n1 [Compound 1-34, 4-Fluoro-3-(4-(2-(4-methylpyrimidin-2-ylamino)thiazol-4-yl)-1H-pyrazol-5-yl)benzonitrile] | 0.1 to 1
12 | Cc1ccnc(Nc2nc(-c3c[nH]nc3-c3ccc(F)cc3F)cs2)n1 [Compound 1-24, 4-(3-(2,4-Difluorophenyl)-1H-pyrazol-4-yl)-N-(4-methylpyrimidin-2-yl)thiazol-2-amine] | 1 to 10
13 | Cc1ccnc(Nc2nc(-c3c[nH]nc3-c3cccc(N4CCC(O)C4)c3)cs2)n1 (centres unmarked) [Compound 1-42, 1-(3-(4-(2-(4-Methylpyrimidin-2-ylamino)thiazol-4-yl)-1H-pyrazol-3-yl)phenyl)pyrrolidin-3-ol] | 0.1 to 1
14 | Cc1ccnc(Nc2nc(-c3c[nH]nc3-c3ccc(C4CC4)cc3)cs2)n1 [Compound 1-17, 4-(3-(4-Cyclopropylphenyl)-1H-pyrazol-4-yl)-N-(4-methylpyrimidin-2-yl)thiazol-2-amine] | 1 to 10
15 | Cc1nc(Nc2nc(-c3cn[nH]c3)c(C#N)s2)ns1 [Compound 1-44, 2-(5-Methyl-1,2,4-thiadiazol-3-ylamino)-4-(1H-pyrazol-4-yl)thiazole-5-carbonitrile] | < 0.1
16 | CC(=O)N1CCC=C(c2n[nH]cc2-c2csc(Nc3nccc(C)n3)n2)C1 [Compound 1-33, 1-(3-(4-(2-(4-Methylpyrimidin-2-ylamino)thiazol-4-yl)-1H-pyrazol-3-yl)-5,6-dihydropyridin-1(2H)-yl)ethanone] | 1 to 10

Row | SMILES | EC50 [µM]
17 | Cc1cccc(-c2n[nH]cc2-c2csc(Nc3nccc(C)n3)n2)c1 [Compound 1-12, N-(4-Methylpyrimidin-2-yl)-4-(3-m-tolyl-1H-pyrazol-4-yl)thiazol-2-amine] | 1 to 10
18 | Cc1ccnc(Nc2nc(-c3c[nH]nc3-c3ccncc3)cs2)n1 [Compound 1-18, N-(4-Methylpyrimidin-2-yl)-4-(3-(pyridin-4-yl)-1H-pyrazol-4-yl)thiazol-2-amine] | 1 to 10
19 | N#Cc1sc(Nc2nccnn2)nc1-c1cn[nH]c1 [Compound 1-45, 2-(1,2,4-Triazin-3-ylamino)-4-(1H-pyrazol-4-yl)thiazole-5-carbonitrile] | 0.1 to 1
20 | COc1ccccc1-c1n[nH]cc1-c1csc(Nc2nccc(C)n2)n1 [Compound 1-11, 4-(3-(2-Methoxyphenyl)-1H-pyrazol-4-yl)-N-(4-methylpyrimidin-2-yl)thiazol-2-amine] | 1 to 10
21 | Cc1ccnc(Nc2nc(-c3c[nH]nc3-c3cccc(N4CCS(=O)(=O)CC4)c3)cs2)n1 [Compound 1-2, N-(4-Methylpyrimidin-2-yl)-4-(3-(3-(1,1-dioxido-4-thiomorpholinyl)phenyl)-1H-pyrazol-4-yl)thiazol-2-amine] | 1 to 10
22 | CCc1ccnc(Nc2nc(-c3c[nH]nc3COC)cs2)n1 [Compound 1-38, N-(4-Ethylpyrimidin-2-yl)-4-(3-(methoxymethyl)-1H-pyrazol-4-yl)thiazol-2-amine] | 1 to 10
23 | COC(=O)N1CC=C(c2n[nH]cc2-c2csc(Nc3nccc(C)n3)n2)C1 [Compound 1-39, Methyl 3-(4-(2-(4-methylpyrimidin-2-ylamino)thiazol-4-yl)-1H-pyrazol-3-yl)-2,5-dihydro-1H-pyrrole-1-carboxylate] | 0.1 to 1
24 | c1ccc(Nc2nc(-c3c[nH]nc3N3CCOCC3)cs2)nc1 [Compound 1-13, 4-(3-Morpholino-1H-pyrazol-4-yl)-N-(pyridin-2-yl)thiazol-2-amine] | 1 to 10
25 | Cc1ccnc(Nc2nc(-c3c[nH]nc3-c3cccc(C(N)=O)c3)cs2)n1 [Compound 1-22, 3-(4-(2-(4-Methylpyrimidin-2-ylamino)thiazol-4-yl)-1H-pyrazol-3-yl)benzamide] | 1 to 10
26 | Cc1ccnc(Nc2nc(-c3cn[nH]c3COC3CCC3)cs2)n1 [Compound 1-28, 4-(5-(Cyclobutoxymethyl)-1H-pyrazol-4-yl)-N-(4-methylpyrimidin-2-yl)thiazol-2-amine] | 0.1 to 1
27 | CCOc1sc(Nc2nccc(C)n2)nc1-c1cn[nH]c1 [Compound 1-47, 5-Ethoxy-N-(4-methylpyrimidin-2-yl)-4-(1H-pyrazol-4-yl)thiazol-2-amine] | < 0.1
28 | Cc1ccnc(Nc2nc(-c3c[nH]nc3-c3cccc4c3CNC4=O)cs2)n1 [Compound 1-7, 4-(4-(2-(4-Methylpyrimidin-2-ylamino)thiazol-4-yl)-1H-pyrazol-3-yl)isoindolin-1-one] | 1 to 10
29 | CNC(=O)c1[nH]ncc1-c1csc(Nc2nccc(C)n2)n1 [Compound 1-32, N-Methyl-4-(2-(4-methylpyrimidin-2-ylamino)thiazol-4-yl)-1H-pyrazole-5-carboxamide] | 1 to 10
30 | COc1ccc(F)cc1-c1n[nH]cc1-c1csc(Nc2ncccn2)n1 [Compound 1-31, 4-(3-(5-Fluoro-2-methoxyphenyl)-1H-pyrazol-4-yl)-N-(pyrimidin-2-yl)thiazol-2-amine] | < 0.1
31 | Cc1ccnc(Nc2nc(-c3c[nH]nc3-c3ccccc3OC(F)(F)F)cs2)n1 [Compound 1-20, N-(4-Methylpyrimidin-2-yl)-4-(3-(2-(trifluoromethoxy)phenyl)-1H-pyrazol-4-yl)thiazol-2-amine] | 1 to 10
32 | CCOc1ccccc1-c1n[nH]cc1-c1csc(Nc2nccc(C)n2)n1 [Compound 1-23, 4-(3-(2-Ethoxyphenyl)-1H-pyrazol-4-yl)-N-(4-methylpyrimidin-2-yl)thiazol-2-amine] | 1 to 10
